# How the values were obtained:
# B16-F0 melanoma = assay: Calcein AM cytotoxicity, B16-F0; type: cell-based; conditions: Mus musculus, B16F0, 72 h, read-out: IC 50, B16-F0
# Description: One of the parameters used, as the basis for cytotoxicity assays, is the metabolic activity of viable cells. For example, a microtiter assay, which uses the Calcein AM, is now widely used to quantitate cell proliferation and cytotoxicity. For instance, this assay is used in drug screening programs and in chemosensitivity testing. Because only metabolically active cells cleave Calcein AM, these assays detect viable cells exclusively. The quantity of reduced Calcein AM corresponds to the number of vital cells in the culture.
# Human T-lymphoblastic leukemia cell line CEM; promyelocytic HL-60 and monocytic U937 leukemias; breast carcinoma cell lines MCF-7, BT549, MDA-MB-231; glioblastoma U87MG cells; cervical carcinoma cells HELA; sarcoma cells U2OS and Saos2; hepatocellular carcinoma HepG2; mouse fibroblasts NIH3T3; mouse immortalized bone marrow macrophages B2.4 and B10A.4; P388D1 and L1210 leukemia; B16 and B16F10 melanomas were used for routine screening of compounds. The cells were maintained in Nunc/Corning 80 cm^2 plastic tissue culture flasks and cultured in cell culture medium (DMEM with 5 g/l glucose, 2 mM glutamine, 100 U/ml penicillin, 100 μg/ml streptomycin, 10% fetal calf serum and sodium bicarbonate).
# The cell suspensions that were prepared and diluted according to the particular cell type and the expected target cell density (2.500-30.000 cells per well based on cell growth characteristics) were added by pipette (80 μl) into 96/well microtiter plates. Inoculates were allowed a pre-incubation period of 24 hours at 37° C. and 5% CO2 for stabilisation. Four-fold dilutions of the intended test concentration were added at time zero in 20 μl aliquots to the microtiter plate wells. Usually, test compound was evaluated at six 4-fold dilutions. In routine testing, the highest well concentration was […], but it can be the matter of change dependent on the agent. All drug concentrations were examined in duplicates. Incubations of cells with the test compounds lasted for 72 hours at 37° C., in 5% CO2 atmosphere and 100% humidity. At the end of incubation period, the cells were assayed by using the Calcein AM. Ten microliters of the stock solution were pipetted into each well and incubated further for 1 hours. Fluorescence (FD) was measured with the Labsystem FIA Reader Fluoroscan Ascent (UK). The tumour cell survival (GI50) was calculated using the following equitation: TCS═(FDdrug exposed well/mean FDcontrol wells)×100%. The GI50 value, the drug concentration lethal to 50% of the tumour cells, was calculated from the obtained dose response curves (FIG. 1).
# [1] = test system: Triticum aestivum cv. Hereward leaf tips; assay: Retention of chlorophyll in excised wheat leaf tips; type: in vivo; conditions: chlorophyll retention at the concentration with highest activity
# Method in brief: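 Tips of first leaves from 7-day wheat (cv. Hereward) seedlings kept on compound solutions (10^−8 to 10^−4 M, from DMSO stock) for 96 h in the dark at 25 °C. Chlorophyll extracted in 80% ethanol at 80 °C and read at 665 nm. Activity at the best concentration expressed relative to 10^−4 M BAP (100%), five replicates.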
# [2] = test system: human diploid fibroblasts (HCA cells); assay: Senescence, beta-galactosidase staining of human diploid fibroblasts; type: cell-based
# Method in brief: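 HCA fibroblasts at passages 25, 45 and 80 were fixed for 5 min at room temperature in 2% formaldehyde/0.2% glutaraldehyde. They were then incubated at 37 °C without CO2 for 1 to 16 hours with X-gal 1 mg/ml, 5 mM ferri- and ferrocyanide and 2 mM MgCl2 in citric/phosphate buffer, pH 6.0. Blue-stained cells were scored.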
# [3] = test system: Amaranthus caudatus cotyledon/hypocotyl explants; assay: Amaranthus bioassay, betacyanin content; type: in vivo; conditions: betacyanin content at the concentration with highest activity
# MCF-7 cell line = assay: Apoptosis in MCF-7, Anexin FITC V / propidium iodide staining; type: cell-based, human; conditions: FIG. 3; 6 h, 20 μM apoptotic cells
# Protocol: A MCF-7, apoptotic cells: 6 h, 12, 20 μM, B MCF-7, secondary necrotic cells (i.e. necrosis following apoptosis), 12 h, 12, 40 μM; C MCF-7, necrotic cells, 24 h, 12, 40 μM. Anexin FITC V (Mol. Probes) and propidium iodide staining: anexin—green, PI—red.
# Analysed using “Olympus image analysis” after treatment of MCF-7 tumour cells by 6-(2-hydroxy-3-methoxybenzylamino)purine. A,B—control cells without treatment; C,D—apoptotic cells (condensation of chromatin); A,C—fluorescence microscopy; B,D—fluorescence image analysis.
smiles,measurement,setting,value
COc1cccc(CNc2ncnc3nc[nH]c23)c1O [6-(2-hydroxy-3-methoxybenzylamino)purine],IC50,B16-F0 melanoma,69 µM
same,Activity (%) [10^−4 mol · l^−1 BAP = 100%],[1],34 (±5) %
same,SENESCENT CELLS (%) HCA25,[2]; passage 25,4%
same,SENESCENT CELLS (%) HCA45,[2]; passage 45,3%
same,SENESCENT CELLS (%) HCA80,[2]; passage 80,20%
same,activity (%) [10^−5 mol · l^−1 BAP = 100%],[3],19 (±3) %
same,apoptosis in MCF-7 tumour cells,MCF-7 cell line,induced apoptosis

# From patent US8552013B2, “Heterocyclic compounds based on N6-substituted adenine, methods of their preparation, their use for preparation of drugs, cosmetic preparations and growth regulators, pharmaceutical preparations, cosmetic preparations and growth regulators containing these compounds” (USTAV Experimentalni Botaniky Akademie Ved Ceske Republiky, priority 2001, dated 2013)
